Measurements from US20220339143A1, “TAK-925 FOR USE IN TREATING NARCOLEPSY” (Takeda Pharmaceutical Company Limited, priority 2019, published 2022).
Like-named read-outs stand apart in the source and are kept apart here.

Assay: Single dose PK in healthy subjects (Cohorts 1, 2, S1 and S2), plasma
Format: in vivo, human
Conditions: human, plasma, iv, healthy subjects
Procedure: This study investigates (i) the safety and tolerability of Compound A (methyl (2R,3S)-3-((methylsulfonyl)amino)-2-(((cis-4-phenylcyclohexyl)oxy)methyl)piperidine-1-carboxylate) when a single dose given as a 9 hour continuous IV infusion is administered to healthy adults, healthy elderly subjects and patients with narcolepsy type 1 (NT1); (ii) the pharmacokinetics of Compound A when a single dose given as a 9 hour continuous IV infusion is administered to healthy adults, healthy elderly subjects and patients with narcolepsy type 1; and (iii) the pharmacodynamics (PD) effects of Compound A, primarily by evaluation of the sleep latency on MWT when a single dose given as a 9 hour continuous IV infusion is administered to patients with narcolepsy type 1.
Pharmacokinetics: Concentrations of Compound A in plasma, and CSF, and pharmacokinetics parameters.
On average, the time to reach the plateau appeared to be approximately 3 to 4 hours after the start of infusion. […] After switching off the IV infusion, Compound A plasma concentrations declined rapidly and in a biphasic manner with a mean terminal disposition phase t1/2z ranging approximately from 3.4 to 5.1 hours across all doses. […] Table 5 provides a summary of plasma concentrations of Compound A after a single IV infusion in healthy subjects. Table 6 provides a summary of pharmacokinetic parameters of Compound A after a single IV infusion in healthy subjects.

COC(=O)N1CCC[C@H](NS(C)(=O)=O)[C@@H]1CO[C@H]1CC[C@@H](c2ccccc2)CC1 [Compound A, methyl (2R,3S)-3-((methylsulfonyl)amino)-2-(((cis-4-phenylcyclohexyl)oxy)methyl)piperidine-1-carboxylate]
Cmax (134.4 mg, 134.4 mg single IV infusion, read-out: Cmax Geo Mean): 305 ng/mL
Cmax (134.4 mg, 134.4 mg single IV infusion, read-out: Cmax Mean): 308 ng/mL
Cmax (134.4 mg, 134.4 mg single IV infusion, read-out: Cmax Median): 314 ng/mL
Vd (134.4 mg, 134.4 mg single IV infusion, read-out: Vss Mean): 88.5 L
Vd (134.4 mg, 134.4 mg single IV infusion, read-out: Vss Median): 87 L
Vd (134.4 mg, 134.4 mg single IV infusion, read-out: Vz Mean): 285 L
Vd (134.4 mg, 134.4 mg single IV infusion, read-out: Vz Median): 276 L
Tmax (134.4 mg, 134.4 mg single IV infusion, read-out: tmax Mean): 6.33 h
Tmax (134.4 mg, 134.4 mg single IV infusion, read-out: tmax Median): 6.5 h
AUC (180 mg, 180 mg single IV infusion, read-out: AUC24 Geo Mean): 2990 ng·h/mL
AUC (180 mg, 180 mg single IV infusion, read-out: AUC24 Mean): 3000 ng·h/mL
AUC (180 mg, 180 mg single IV infusion, read-out: AUC24 Median): 3040 ng·h/mL
AUC(0-inf) (180 mg, 180 mg single IV infusion, read-out: AUCinf Geo Mean): 3010 ng·h/mL
AUC(0-inf) (180 mg, 180 mg single IV infusion, read-out: AUCinf Mean): 3020 ng·h/mL
AUC(0-inf) (180 mg, 180 mg single IV infusion, read-out: AUCinf Median): 3050 ng·h/mL
AUC(0-t) (180 mg, 180 mg single IV infusion, read-out: AUClast Geo Mean): 2990 ng·h/mL
AUC(0-t) (180 mg, 180 mg single IV infusion, read-out: AUClast Mean): 3000 ng·h/mL
AUC(0-t) (180 mg, 180 mg single IV infusion, read-out: AUClast Median): 3040 ng·h/mL
clearance (180 mg, 180 mg single IV infusion, read-out: CL Mean (converted)): 997 mL/min
clearance (180 mg, 180 mg single IV infusion, read-out: CL Median (converted)): 985 mL/min
concentration at 9 h (180 mg, 180 mg single IV infusion, read-out: Ceoi Geo Mean): 324 ng/mL
concentration at 9 h (180 mg, 180 mg single IV infusion, read-out: Ceoi Mean): 325 ng/mL
concentration at 9 h (180 mg, 180 mg single IV infusion, read-out: Ceoi Median): 316 ng/mL
Cmax (180 mg, 180 mg single IV infusion, read-out: Cmax Geo Mean): 344 ng/mL
Cmax (180 mg, 180 mg single IV infusion, read-out: Cmax Mean): 345 ng/mL
Cmax (180 mg, 180 mg single IV infusion, read-out: Cmax Median): 358 ng/mL
Vd (180 mg, 180 mg single IV infusion, read-out: Vss Mean): 90.8 L
Vd (180 mg, 180 mg single IV infusion, read-out: Vss Median): 81.5 L
Vd (180 mg, 180 mg single IV infusion, read-out: Vz Mean): 291 L
Vd (180 mg, 180 mg single IV infusion, read-out: Vz Median): 268 L
Tmax (180 mg, 180 mg single IV infusion, read-out: tmax Mean): 6.33 h
Tmax (180 mg, 180 mg single IV infusion, read-out: tmax Median): 6.5 h
AUC (240 mg, 240 mg single IV infusion, read-out: AUC24 Geo Mean): 4540 ng·h/mL
AUC (240 mg, 240 mg single IV infusion, read-out: AUC24 Mean): 4580 ng·h/mL
AUC (240 mg, 240 mg single IV infusion, read-out: AUC24 Median): 4400 ng·h/mL
AUC(0-inf) (240 mg, 240 mg single IV infusion, read-out: AUCinf Geo Mean): 4580 ng·h/mL
AUC(0-inf) (240 mg, 240 mg single IV infusion, read-out: AUCinf Mean): 4630 ng·h/mL
AUC(0-inf) (240 mg, 240 mg single IV infusion, read-out: AUCinf Median): 4430 ng·h/mL
AUC(0-t) (240 mg, 240 mg single IV infusion, read-out: AUClast Geo Mean): 4540 ng·h/mL
AUC(0-t) (240 mg, 240 mg single IV infusion, read-out: AUClast Mean): 4580 ng·h/mL
AUC(0-t) (240 mg, 240 mg single IV infusion, read-out: AUClast Median): 4400 ng·h/mL
clearance (240 mg, 240 mg single IV infusion, read-out: CL Mean (converted)): 880 mL/min
clearance (240 mg, 240 mg single IV infusion, read-out: CL Median (converted)): 906 mL/min
concentration at 9 h (240 mg, 240 mg single IV infusion, read-out: Ceoi Geo Mean): 493 ng/mL
concentration at 9 h (240 mg, 240 mg single IV infusion, read-out: Ceoi Mean): 497 ng/mL
concentration at 9 h (240 mg, 240 mg single IV infusion, read-out: Ceoi Median): 481 ng/mL
Cmax (240 mg, 240 mg single IV infusion, read-out: Cmax Geo Mean): 506 ng/mL
Cmax (240 mg, 240 mg single IV infusion, read-out: Cmax Mean): 512 ng/mL
Cmax (240 mg, 240 mg single IV infusion, read-out: Cmax Median): 483 ng/mL
Vd (240 mg, 240 mg single IV infusion, read-out: Vss Mean): 97.5 L
